Converted amounts (≈) assume the structure as drawn. Where two headings read alike, the source gives them in different places.
Columns and labels:
S. epidemisis = test: MIC, agar dilution, multipoint inoculator; type: cell-based, Staphylococcus epidermidis; settings: Staphylococcus epidermidis, upper value of MIC reading, read-out: MIC
Outline: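 Read-out is the MIC by agar dilution. Plates contain Mueller Hinton agar; bacteria are applied via multipoint inoculator, 10^4 CFU per spot.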

[1] = tested on: vancomycin resistant enterococci; test: MIC, agar dilution, multipoint inoculator; type: cell-based; settings: one value printed for the seven vancomycin resistant enterococci cultures of Table 5; read-out: MIC
Method: This activity was measured using a multipoint inoculator method as follows. The MIC for each compound was measured using an agar dilution method (Onda, H., et al., Int. J. Antimicrob. Agents. 18, 263 (2001)) (Mueller Hinton agar) by means of a multipoint inoculator delivering 10^4 colony forming units per spot.
It will be noted that compound 4PYcq was active against all strains of MRSA as well as all other Gram positive bacteria. For this reason it was further tested against some vancomycin resistant enterococci, using the multipoint inoculator method described above. It can be seen from Table 5 that the high level activity was retained.

[2] = tested on: C. difficile (NCTC 11204 and thirty-two clinical isolates); test: Minimum Inhibitory Concentration (MIC) against C. difficile, microtiter plate, anaerobic, 48 hours; type: cell-based, Clostridium difficile; settings: Clostridioides difficile, read-out: MIC
Method: (§1) Compounds 4PYcq and 4PYOfi were screened against one NCTC strain and thirty-two clinical isolates of Clostridium difficile as described below.
(§2) The antimicrobial compounds were prepared by adding 5.12 mg of each compound to 1 ml of DMSO. From each solution 100 μl was then aseptically transferred into 1 ml of sterile distilled water to give a concentration of 512 μg/ml. 100 μl of each diluted compound was then added to the first well of a sterile 96-well microliter plate. Serial dilutions were performed to give a concentration range spanning from 0 to 512 μg/ml of each compound. The microtiter plate containing the antimicrobials was left to equilibrate in an anaerobic cabinet for 3 hours before the addition of C. difficile cells. An overnight culture of C. difficile (NCTC 11204) was standardized to an OD^600 of 0.04 (approximately 10^6 CFU/ml), using Wilkins Chalgren broth and was vortexed for 60 seconds to ensure there was a uniform suspension. 100 μl of standardized culture was then added to each well of the microtiter plate, containing the equilibrated antimicrobials. The final concentrations of the antimicrobials in the wells therefore ranged from […] and the concentration of the culture was 10^5 CFU/ml in each well. The microtiter plate was incubated at 37° C., for 48 hours under anaerobic conditions. The MIC was determined as the lowest concentration of antimicrobial agent inhibiting the total growth of C. difficile cells. After incubation, the total solution from each well was aseptically spread onto a separate Wilkins chalgren agar plate. Plates were incubated for 48 hours, at 37° C., under anaerobic conditions. The number of colonies on each plate was counted after incubation and the MBC was determined as the lowest concentration of the antimicrobial agent at which 99.9% of organisms in the original inoculum were killed.

[3] = tested on: C. difficile (NCTC 11204 and thirty-two clinical isolates); test: Minimum Bactericidal Concentration (MBC) against C. difficile, 99.9% kill; type: cell-based, Clostridium difficile; settings: Clostridioides difficile, read-out: MBC
Method: as §1, §2

Propionibacterium acnes = test: MIC against Propionibacterium acnes, microtitre double dilution in BHI; type: cell-based; settings: Cutibacterium acnes, read-out: MIC
Method: Compounds 4PYcq and 4PYOfi were screened against one NCTC stain and seven clinical isolates of Propionibacterium acnes as described below.
Bacterial strains of Propionibacterium acnes, stored on beads at −20° C., were plated onto Brain heart infusion (BHI) agar plates. The cultures were incubated anaerobically for 4 days at 37° C.
Bacterial suspensions were prepared by diluting bacterial suspensions with BHI to obtain bacterial concentrations approximately 2×10^6 cfu/ml.
The test antimicrobial compounds were prepared by diluting the compound with appropriate nutrient broth to obtain correct stock solution. 50 μl of BHI were aliquoted onto the wells of the round-bottomed microtitre plate. 50 μl of the antimicrobial compounds were added onto the wells in the first column of the plate and several serial double dilutions were performed along the wells on each row. Following the series of double dilutions of the test compound the bacterial suspension were added onto each well except on the last column which served as a negative control. The lowest concentration of the test compound which inhibited bacterial growth was regarded as MIC of the compound.

Acinetobater spp. = test: activity against Acinetobacter spp.; type: cell-based; settings: Gram-negative bacterium
[4] = Clostridium difficile Isolate 1
[5] = Clostridium difficile Isolate 2
[6] = Clostridium difficile Isolate 3
[7] = Clostridium difficile Isolate 4
[8] = Clostridium difficile Isolate 5
[9] = Clostridium difficile Isolate 6
[10] = Clostridium difficile Isolate 7
[11] = Clostridium difficile Isolate 8
[12] = Clostridium difficile Isolate 9
[13] = Clostridium difficile Isolate 10
[14] = Clostridium difficile Isolate 11
[15] = Clostridium difficile Isolate 12
[16] = Clostridium difficile Isolate 13
[17] = Clostridium difficile Isolate 14
[18] = Clostridium difficile Isolate 15
[19] = Clostridium difficile Isolate 16
[20] = Clostridium difficile Isolate 17
[21] = Clostridium difficile Isolate 18
[22] = Clostridium difficile Isolate 19
[23] = Clostridium difficile Isolate 20
[24] = Clostridium difficile Isolate 21
[25] = Clostridium difficile Isolate 22
[26] = Clostridium difficile Isolate 23
[27] = Clostridium difficile Isolate 24
[28] = Clostridium difficile Isolate 25
[29] = Clostridium difficile Isolate 26
[30] = Clostridium difficile Isolate 27
[31] = Clostridium difficile Isolate 28
[32] = Clostridium difficile Isolate 29
[33] = Clostridium difficile Isolate 30
[34] = Clostridium difficile Isolate 31
[35] = Clostridium difficile Isolate 32
[36] = Clostridium difficile NCTC 11204

CC(C)(C)c1cc(/C=N/N=C(\N)c2ccncc2)c(O)c(C(C)(C)C)c1 [Compound 4PYcq]
MIC (S. epidemisis; 18 h, S. epidemisis Isolate 1): 4 µg/mL (≈ 11.3 µM) | MIC (S. epidemisis; NCTC11047, 18 h, S. epidemisis NCTC 11047): 4 µg/mL (≈ 11.3 µM) | MIC [1]: 2 to 4 µg/mL (≈ 5.67 to 11.3 µM) | MIC [2, 4]: 4 to 8 µg/mL (≈ 11.3 to 22.7 µM) | MIC [2, 5]: 2 to 4 µg/mL (≈ 5.67 to 11.3 µM) | MIC [2, 6]: 2 to 4 µg/mL (≈ 5.67 to 11.3 µM) | MIC [2, 7]: 2 to 4 µg/mL (≈ 5.67 to 11.3 µM) | MIC [2, 8]: 2 to 4 µg/mL (≈ 5.67 to 11.3 µM) | MIC [2, 9]: 2 to 4 µg/mL (≈ 5.67 to 11.3 µM) | MIC [2, 10]: 4 to 8 µg/mL (≈ 11.3 to 22.7 µM) | MIC [2, 11]: 4 to 8 µg/mL (≈ 11.3 to 22.7 µM) | MIC [2, 12]: 4 to 8 µg/mL (≈ 11.3 to 22.7 µM) | MIC [2, 13]: 2 to 4 µg/mL (≈ 5.67 to 11.3 µM) | MIC [2, 14]: 2 to 4 µg/mL (≈ 5.67 to 11.3 µM) | MIC [2, 15]: 4 to 8 µg/mL (≈ 11.3 to 22.7 µM) | MIC [2, 16]: 4 to 8 µg/mL (≈ 11.3 to 22.7 µM) | MIC [2, 17]: 4 to 8 µg/mL (≈ 11.3 to 22.7 µM) | MIC [2, 18]: 4 to 8 µg/mL (≈ 11.3 to 22.7 µM) | MIC [2, 19]: 4 to 8 µg/mL (≈ 11.3 to 22.7 µM) | MIC [2, 20]: 2 to 4 µg/mL (≈ 5.67 to 11.3 µM) | MIC [2, 21]: 2 to 4 µg/mL (≈ 5.67 to 11.3 µM) | MIC [2, 22]: 4 to 8 µg/mL (≈ 11.3 to 22.7 µM) | MIC [2, 23]: 2 to 4 µg/mL (≈ 5.67 to 11.3 µM) | MIC [2, 24]: 4 to 8 µg/mL (≈ 11.3 to 22.7 µM) | MIC [2, 25]: 2 to 4 µg/mL (≈ 5.67 to 11.3 µM) | MIC [2, 26]: 2 to 4 µg/mL (≈ 5.67 to 11.3 µM) | MIC [2, 27]: 4 to 8 µg/mL (≈ 11.3 to 22.7 µM) | MIC [2, 28]: 4 to 8 µg/mL (≈ 11.3 to 22.7 µM) | MIC [2, 29]: 4 to 8 µg/mL (≈ 11.3 to 22.7 µM) | MIC [2, 30]: 4 to 8 µg/mL (≈ 11.3 to 22.7 µM) | MIC [2, 31]: 4 to 8 µg/mL (≈ 11.3 to 22.7 µM) | MIC [2, 32]: 4 to 8 µg/mL (≈ 11.3 to 22.7 µM) | MIC [2, 33]: 2 to 4 µg/mL (≈ 5.67 to 11.3 µM) | MIC [2, 34]: 4 to 8 µg/mL (≈ 11.3 to 22.7 µM) | MIC [2, 35]: 4 to 8 µg/mL (≈ 11.3 to 22.7 µM) | MIC [2, 36]: 4 to 8 µg/mL (≈ 11.3 to 22.7 µM) | MBC [3, 4]: 4 to 8 µg/mL (≈ 11.3 to 22.7 µM) | MBC [3, 5]: 4 to 8 µg/mL (≈ 11.3 to 22.7 µM) | MBC [3, 6]: 2 to 4 µg/mL (≈ 5.67 to 11.3 µM) | MBC [3, 7]: 2 to 4 µg/mL (≈ 5.67 to 11.3 µM) | MBC [3, 8]: 2 to 4 µg/mL (≈ 5.67 to 11.3 µM) | MBC [3, 9]: 2 to 4 µg/mL (≈ 5.67 to 11.3 µM) | MBC [3, 10]: 4 to 8 µg/mL (≈ 11.3 to 22.7 µM) | MBC [3, 11]: 4 to 8 µg/mL (≈ 11.3 to 22.7 µM) | MBC [3, 12]: 4 to 8 µg/mL (≈ 11.3 to 22.7 µM) | MBC [3, 13]: 4 to 8 µg/mL (≈ 11.3 to 22.7 µM) | MBC [3, 14]: 2 to 4 µg/mL (≈ 5.67 to 11.3 µM) | MBC [3, 15]: 4 to 8 µg/mL (≈ 11.3 to 22.7 µM) | MBC [3, 16]: 4 to 8 µg/mL (≈ 11.3 to 22.7 µM) | MBC [3, 17]: 4 to 8 µg/mL (≈ 11.3 to 22.7 µM) | MBC [3, 18]: 4 to 8 µg/mL (≈ 11.3 to 22.7 µM) | MBC [3, 19]: 4 to 8 µg/mL (≈ 11.3 to 22.7 µM) | MBC [3, 20]: 4 to 8 µg/mL (≈ 11.3 to 22.7 µM) | MBC [3, 21]: 2 to 4 µg/mL (≈ 5.67 to 11.3 µM) | MBC [3, 22]: 4 to 8 µg/mL (≈ 11.3 to 22.7 µM) | MBC [3, 23]: 2 to 4 µg/mL (≈ 5.67 to 11.3 µM) | MBC [3, 24]: 4 to 8 µg/mL (≈ 11.3 to 22.7 µM) | MBC [3, 25]: 2 to 4 µg/mL (≈ 5.67 to 11.3 µM) | MBC [3, 26]: 2 to 4 µg/mL (≈ 5.67 to 11.3 µM) | MBC [3, 27]: 4 to 8 µg/mL (≈ 11.3 to 22.7 µM) | MBC [3, 28]: 4 to 8 µg/mL (≈ 11.3 to 22.7 µM) | MBC [3, 29]: 8 to 16 µg/mL (≈ 22.7 to 45.4 µM) | MBC [3, 30]: 4 to 8 µg/mL (≈ 11.3 to 22.7 µM) | MBC [3, 31]: 4 to 8 µg/mL (≈ 11.3 to 22.7 µM) | MBC [3, 32]: 4 to 8 µg/mL (≈ 11.3 to 22.7 µM) | MBC [3, 33]: 2 to 4 µg/mL (≈ 5.67 to 11.3 µM) | MBC [3, 34]: 4 to 8 µg/mL (≈ 11.3 to 22.7 µM) | MBC [3, 35]: 8 to 16 µg/mL (≈ 22.7 to 45.4 µM) | MBC [3, 36]: 4 to 8 µg/mL (≈ 11.3 to 22.7 µM) | MIC (Propionibacterium acnes; NCTC737, P. acnes NCTC 737): 64 to 128 µg/mL (≈ 182 to 363 µM) | MIC (Propionibacterium acnes; P. acnes Isolate 1): 4 to 8 µg/mL (≈ 11.3 to 22.7 µM) | MIC (Propionibacterium acnes; P. acnes Isolate 2): 32 to 64 µg/mL (≈ 90.8 to 182 µM) | MIC (Propionibacterium acnes; P. acnes Isolate 3): 2 to 4 µg/mL (≈ 5.67 to 11.3 µM) | MIC (Propionibacterium acnes; P. acnes Isolate 4): 128 to 256 µg/mL (≈ 363 to 726 µM) | MIC (Propionibacterium acnes; P. acnes Isolate 5): 64 to 128 µg/mL (≈ 182 to 363 µM) | MIC (Propionibacterium acnes; P. acnes Isolate 6): 64 to 128 µg/mL (≈ 182 to 363 µM) | MIC (Propionibacterium acnes; P. acnes Isolate 7): > 256 µg/mL | activity against Acinetobater spp. (in words) (Acinetobater spp.): inactive

Reference: patent US20080096894A1, “Anti-Bacterial Compounds” (ASTON UNIVERSITY, priority 2005, published 2008)
